Laboratory results from patent US20020147353A1, “Novel flavonoids” (Vereniging christelijk wetenschappelijk anderwijs, priority 1999, published 2002).

What was measured:
[1] = TEAC model (Trolox equivalent antioxidant capacity); conditions: concentration of Trolox equivalent to 1 mM test compound; mean ± S.D., n = 3-5
Method: A solution of 2,2′-azino-bis(3-ethylbenzthiazoline-6-sulfonic acid) (1.23 mg/mL) and azobisamidinepropane (3.96 mg/mL) in 50 mM phosphate buffer (pH=7.4) was heated at 70° C. for 20 min. The amount of ABTS radicals was measured by determination of the absorbance at 734 nm.
Stock solutions of the flavonoids were freshly prepared in nitrogen-purged DMSO and nanopure water (1:1) just before use. A calibration curve of Trolox ((+/−)-6-hydroxy-2,5,7,8-tetramethyl-chroman-2-carboxylic acid) was made in a concentration range from 0 to 20 μM. A mixture of 50 μL test compound and 950 μL ABTS^−+ solution was incubated at 37° C. for 5 min. Subsequently the absorbance at 734 nm was determined on a UV/VIS Spectrophotometer.
The antioxidant-induced decrease in absorbance is directly related to the antioxidant capacity of the compound (solution) being tested.
The Trolox equivalent antioxidant capacity (TEAC) is defined as the concentration (mM) of Trolox having an antioxidant capacity equivalent to 1 mM of the test compound.

[2] = tested on: guinea pigs exposed to ozone; experiment: Ozone exposure model for COPD, pulmonary neutrophil influx; format: in vivo; conditions: 1 ppm ozone 12 h then 12 h air, 68 mg/kg i.p.
Excerpt: Chronic Obstructive Pulmonary Disease is associated with oxidative stress. There are strong indications that antioxidant therapy may be beneficial in COPD ([…] et al., Am. J. Resp. Crit. Care Med. 156, 341-358 (1997)). Not only the number of exacerbations decreases, but also the progressive decrease in lung function becomes less severe under treatment with an antioxidant like N-acetylcysteine. An animal model for COPD is ozone exposure. In contrast to asthma, COPD is characterized by a neutrophil influx. […] We studied the protective effect of compound 9i in this ozone exposure model. […] To this end compound 9[…].) was given (24 h, 12 h before ozone exposure and daily during the exposure to ozone/air) to guinea pigs that were exposed to 1 ppm ozone for 12 h which was followed by 12 h of air.

[3] = tested on: A2780 cells; experiment: Interference with antitumor activity of doxorubicin, MTT assay; format: cell-based; conditions: A2780, 100 μM, 96 h
Method: (§1) Experiment 5: Interference with the Antitumor Activity of Doxorubicin Because of the possible use of these compounds as adjuvants in the chemotherapy, it was checked whether the compounds influenced the negative effect of doxorubicin on cell growth. […] This observation further underlined the use of these compounds as adjuvant therapy in the protection of the side effects of cytostatics. On day 0 cultured OVCAR-3, MCF-7 and A2780 cells were plated at a density of 5000 cells/well for OCAR-3 and MCF-7 and 3000 cells/well for A2780 cells. […] After incubation of 96 h at 37° C. (day 5), growth inhibitory effects were evaluated using the standard MTT assay.

[4] = tested on: MCF-7 cells; experiment: as above; format: cell-based; conditions: MCF-7, 100 μM, 96 h
Method: as §1

[5] = tested on: OVCAR-3 cells; experiment: as above; format: cell-based; conditions: OVCAR-3, 100 μM, 96 h
Method: as §1

[6] = tested on: alloxan-induced diabetic rats; experiment: Antidiabetic action in alloxan-induced diabetic rats; format: in vivo; conditions: 68 mg/kg i.p. for two weeks
Method: In order to study the antidiabetic action of compound 9i (see FIG. 1 and the section “syntheses” above), the compound was studied in alloxan-induced diabetic rats. […] These diabetic rats were subsequently treated with compound 9i for two weeks (at 68 mg/kg, i.p.).

[7] = tested on: iron/ascorbate induced lipid peroxidation; experiment: Lipid peroxidation (LPO) model, heat-treated hepatic microsomes, TBA reactive substances; format: biochemical; conditions: rat hepatic microsomes, reaction started with 10 uM FeSO4; mean ± s.e.m., n = 3-5
Method: Experiment 1: Lipid Peroxidation Model
Preparation of hepatic microsomes.
Male Wistar rats (200-220 g) obtained from Harlan Nederland B.V. (Horst, The Netherlands) were sacrificed by decapitation. Livers were removed and homogenized in ice-cold phosphate buffer (50 mM+0.1 mM EDTA, pH=7.4, 1:2 w/v). The homogenate was centrifuged at 10 000× g (20 min at 4° C.). Subsequently, the supernatant was centrifuged at 100 000× g for 60 min (4° C.). The pellet was resuspended in phosphate buffer and centrifuged again at 100 000× g (60 min, 4° C.). Finally the microsomal pellet was resuspended in phosphate buffer (2 g liver/ml) and 1 mL aliquots were stored at −80° C.
Microsomes were thawed and resuspended in ice-cold Tris-HCl buffer (50 mM, pH=7.4 at 37° C.) and washed by centrifugation. The pellet was resuspended in 2 mL 50 mM Tris-HCl buffer and heated to 100° C. for at least 2 min to remove all enzymatic factors just before resuspending and diluting it in ice-cold Tris buffer to 1.5 mg/mL.
Stock solutions of the flavonoids were freshly prepared in nitrogen-purged DMSO and nanopure water (1:1) just before use. The reaction was started by adding 10 uM freshly prepared FeSO4 in nitrogen-purged nanopure water. LPO was assayed by measuring thiobarbituric acid (TBA) reactive substances. At t=0, 5, 10, 15, 30, 45 and 60 min an 0.3 mL aliquot of the incubation was mixed with 2 mL of an ice-cold TBA-trichloroacetic acid-HCl-butylhydroxytoluene (BHT) solution to stop the reaction. After heating and centrifugation the absorbance at 535 vs 600 nm was determined. The TBA-trichloroacetic acid-HCl-butylhydroxytoluene solution was prepared by dissolving 41.6 mg TBA/10 ml trichloroacetic acid (16.8% w/v in 0.125 N HCl). To 10 ml TBA-trichloroacetic acid-HCl 1 ml BHT (1.5 mg/ml ethanol) was added.
The IC50 was determined by measuring the % LPO inhibition at several concentrations and interpolating the 50% inhibition point.

[8] = tested on: doxorubicin-induced cardiotoxicity; experiment: Protection against doxorubicin-induced cardiotoxicity in vivo (ST-interval in ECG, telemetry); conditions: mice
[9] = tested on: isolated mouse left atrium; experiment: Isolated mouse left atrium model: protection against doxorubicin-induced negative inotropy; conditions: 250 μM flavonoid with 35 μM doxorubicin, electrically paced mouse left atrium
Method: Experiment 3: Isolated Mouse Left Atrium Model
In order to determine the cardioprotective properties of the compounds in vitro, the protection against doxorubicin-induced negative inotropy was studied, using the isolated mouse left atrium model.
The example compounds were tested for their protective effect on the negative inotropic action of doxorubicin on the isolated mouse left atrium. The testing model has been described earlier (de Jong et al.Ress Comm Chem Pathol Pharmacol 68, 275-289 (1990). In short, left atria were isolated from male Balb/c mice (18-22 g) and stimulated with square wave pulses of 3 ms duration at a frequency of 4 Hz. Incubation with […] doxorubicin causes a decrease in inotropy of 50% (after 1 h). Atria were incubated with 35 μM doxorubicin and 250 μM flavonoid. Inotropy was measured and expressed as % basal contractile force relative to t=0.

## O=c1c(O[C@@H]2O[C@H](CO)[C@@H](O)[C@H](O)[C@H]2O)c(-c2ccc(O)c(O)c2)oc2ccccc12 [Compound 9i, 3′,4′-dihydroxy-3-glucoseflavone]
[1]
  TEAC: 4.9 ± 0.3 mM
[2]
  pulmonary neutrophil influx: could be prevented
[3]
  9i 100 μM growth %: 97.7%
[4]
  9i 100 μM growth %: 83.8%
[5]
  9i 100 μM growth %: 86.8%
[6]
  glucose plasma level compared to controls: decrease in glucose plasma level
[7]
  IC50: 2.8 ± 0.9 µM
[8]; 68 mg/kg i.p.
  potency as protector against doxorubicin-induced cardiotoxicity relative to monoHER: at least 5 times
[8]; 9i 68 mg/kg i.p., doxorubicin 4 mg/kg i.v. weekly, 6 weeks
  protection against doxorubicin-induced cardiotoxicity in vivo (in words): significantly potent activity
[9]
  Atrium protection (250 μM): 46%
